Laboratory results: ChEMBL document CHEMBL3045586, “Synthesis and antimicrobial activity of some new 4-triazolylmethoxy-2H-chromen-2-one derivatives” (2012)
In brackets after ≈: the same amount, converted by molar mass.

How the values were obtained:
Candida albicans [1] = assay: Fungicidal activity against Candida albicans MTCC 227 after 3 days; assay type: functional; conditions: MTCC 227, 72 h
Aspergillus niger [2] = assay: Fungicidal activity against Aspergillus niger MTCC 282 after 3 days; assay type: functional; conditions: MTCC 282, 72 h
Escherichia coli [3] = assay: Bactericidal against Escherichia coli MTCC 443 after 3 days; assay type: functional; conditions: MTCC 443, 72 h
Klebsiella pneumoniae [4] = assay: Bactericidal activity against Klebsiella pneumoniae MTCC 432 after 3 days; assay type: functional; conditions: MTCC 432, 72 h
Staphylococcus aureus [5] = assay: Bactericidal activity against Staphylococcus aureus MTCC 096 after 3 days; assay type: functional; conditions: MTCC 096, 72 h
Candida albicans [6] = assay type: functional, MTCC 227
Candida albicans [7] = assay: Antifungal activity against Candida albicans MTCC 227 after 28 to 30 hr by serial dilution method; assay type: functional
Aspergillus flavus [8] = assay: Antifungal activity against Aspergillus flavus MTCC 277 at […] to […] ug/ml after 28 to 30 hr by cup-plate method; assay type: functional
Aspergillus niger [9] = assay: Antifungal activity against Aspergillus niger MTCC 282 at […] to […] ug/ml after 28 to 30 hr by cup-plate method; assay type: functional
Klebsiella pneumoniae [10] = assay type: functional, MTCC 432
Aspergillus niger [11] = assay: Antifungal activity against Aspergillus niger MTCC 282 after 28 to 30 hr by serial dilution method; assay type: functional
Klebsiella pneumoniae [12] = assay: Antibacterial activity against Klebsiella pneumoniae MTCC 432 after 16 to 18 hr by serial dilution method; assay type: functional
Salmonella typhi [13] = assay: Antibacterial activity against Salmonella enterica subsp. enterica serovar Typhi MTCC 733 at […] to […] ug/ml after 16 to 18 hr by cup-plate method; assay type: functional
Salmonella typhi [14] = assay: Antibacterial activity against Salmonella enterica subsp. enterica serovar Typhi MTCC 733 after 16 to 18 hr by serial dilution method; assay type: functional
Pseudomonas aeruginosa [15] = assay type: functional, MTCC 424
Pseudomonas aeruginosa [16] = assay: Antibacterial activity against Pseudomonas aeruginosa MTCC 424 after 16 to 18 hr by serial dilution method; assay type: functional
Escherichia coli [17] = assay: Antibacterial activity against Escherichia coli MTCC 443 after 16 to 18 hr by serial dilution method; assay type: functional
Escherichia coli [18] = assay type: functional, MTCC 443
Aspergillus flavus [19] = assay: Antifungal activity against Aspergillus flavus MTCC 277 after 28 to 30 hr by serial dilution method; assay type: functional
Aspergillus fumigatus [20] = assay: Antifungal activity against Aspergillus fumigatus MTCC 343 at […] to […] ug/ml after 28 to 30 hr by cup-plate method; assay type: functional
Aspergillus fumigatus [21] = assay: Antifungal activity against Aspergillus fumigatus MTCC 343 after 28 to 30 hr by serial dilution method; assay type: functional
[22] = system: Staphylococcus epidermidis; assay type: functional, MTCC 435
[23] = system: Staphylococcus epidermidis; assay: Antibacterial activity against Staphylococcus epidermidis MTCC 435 after 16 to 18 hr by serial dilution method; assay type: functional
Bacillus subtilis [24] = assay: Antibacterial activity against Bacillus subtilis MTCC 441 after 16 to 18 hr by serial dilution method; assay type: functional
Bacillus subtilis [25] = assay type: functional, MTCC 441
Staphylococcus aureus [26] = assay type: functional, MTCC 096
Staphylococcus aureus [27] = assay: Antibacterial activity against Staphylococcus aureus MTCC 096 after 16 to 18 hr by serial dilution method; assay type: functional

| Structure (SMILES) | MFC (Candida albicans [1]) [µg/mL] | MFC (Aspergillus niger [2]) [µg/mL] | MBC (Escherichia coli [3]) [µg/mL] | MBC (Klebsiella pneumoniae [4]) [µg/mL] | MBC (Staphylococcus aureus [5]) [µg/mL] | inhibition zone (IZ) (Candida albicans [6]) [mm] | MIC (Candida albicans [7]) [µg/mL] | inhibition zone (IZ) (Aspergillus flavus [8]) [mm] | inhibition zone (IZ) (Aspergillus niger [9]) [mm] | inhibition zone (IZ) (Klebsiella pneumoniae [10]) [mm] | MIC (Aspergillus niger [11]) [µg/mL] | MIC (Klebsiella pneumoniae [12]) [µg/mL] | inhibition zone (IZ) (Salmonella typhi [13]) [mm] | MIC (Salmonella typhi [14]) [µg/mL] | inhibition zone (IZ) (Pseudomonas aeruginosa [15]) [mm] | MIC (Pseudomonas aeruginosa [16]) [µg/mL] | MIC (Escherichia coli [17]) [µg/mL] | inhibition zone (IZ) (Escherichia coli [18]) [mm] | MIC (Aspergillus flavus [19]) [µg/mL] | inhibition zone (IZ) (Aspergillus fumigatus [20]) [mm] | also measured |
| --- | --- | --- | --- | --- | --- | --- | --- | --- | --- | --- | --- | --- | --- | --- | --- | --- | --- | --- | --- | --- | --- |
| O=c1cc(OCc2nnc(-c3ccc(F)cc3)[nH]2)c2ccccc2o1 | 12.5 (≈ 37.1 µM) | 25 (≈ 74.1 µM) | 25 (≈ 74.1 µM) | 25 (≈ 74.1 µM) | 12.5 (≈ 37.1 µM) | 14 | 6.25 (≈ 18.5 µM) | 11 | 13 | 13 | 12.5 (≈ 37.1 µM) | 6.25 (≈ 18.5 µM) | 11 | 12.5 (≈ 37.1 µM) | <10 | 25 (≈ 74.1 µM) | 12.5 (≈ 37.1 µM) | 11 | 12.5 (≈ 37.1 µM) | 12 | MIC (Aspergillus fumigatus [21]): 12.5 µg/mL (≈ 37.1 µM); inhibition zone (IZ) [22]: <10 mm; MIC [23]: 50 µg/mL (≈ 148 µM); MIC (Bacillus subtilis [24]): 50 µg/mL (≈ 148 µM); inhibition zone (IZ) (Bacillus subtilis [25]): <10 mm; inhibition zone (IZ) (Staphylococcus aureus [26]): 13 mm; MIC (Staphylococcus aureus [27]): 6.25 µg/mL (≈ 18.5 µM) |
| COc1ccc(-c2nnc(COc3cc(=O)oc4ccccc34)[nH]2)cc1OC | 25 (≈ 65.9 µM) | 25 (≈ 65.9 µM) | 25 (≈ 65.9 µM) | 25 (≈ 65.9 µM) | 12.5 (≈ 32.9 µM) | 15 | 6.25 (≈ 16.5 µM) | <10 | 13 | 11 | 6.25 (≈ 16.5 µM) | 12.5 (≈ 32.9 µM) | 13 | 6.25 (≈ 16.5 µM) | <10 | 25 (≈ 65.9 µM) | 25 (≈ 65.9 µM) | <10 | 25 (≈ 65.9 µM) | <10 | MIC (Aspergillus fumigatus [21]): 25 µg/mL (≈ 65.9 µM); inhibition zone (IZ) [22]: <10 mm; MIC [23]: 25 µg/mL (≈ 65.9 µM); MIC (Bacillus subtilis [24]): 25 µg/mL (≈ 65.9 µM); inhibition zone (IZ) (Bacillus subtilis [25]): <10 mm; inhibition zone (IZ) (Staphylococcus aureus [26]): 14 mm; MIC (Staphylococcus aureus [27]): 6.25 µg/mL (≈ 16.5 µM) |
